Assay results as given in patent US9848603B2, “Methods for protecting plants with antifungal compositions” (priority 2008, dated 2017).
Ends that are not written are not given here.

Key:
[1] = tested on: Fov hyphae; experiment: Detection of reactive oxygen species (DHR123 oxidation) in response to NaD1; details: for effect of ROS scavenger on NaD1-induced DHR123 oxidation: in the presence of ascorbic acid or TEMPO
[2] = tested on: Fusarium oxysporum f. sp. vasinfectum (Fov); assay type: cell-based
[3] = tested on: Fusarium oxysporum f. sp. vasinfectum (Fov); experiment: Growth of Fusarium oxysporum in the presence of NaD1 and chemical fungicides in vitro; assay type: cell-based; details: Fov growth curves, combination with NaD1
Experimental: The inhibitory effects of defensin (NaD1) and chemical fungicides on the growth of Fusarium oxysporum f. sp. vasinfectum (Fov) (Australian isolate VCG01111 isolated from cotton and provided by Farming Systems Institute, DPI, Queensland, Australia) were measured essentially as described by Broekaert, et al (1990). Spores were isolated from sporulating cultures growing in ½ strength potato dextrose broth (PDB). The Fov culture was grown in ½ PDB for 1-2 weeks at room temperature, before spores were separated from hyphal matter by filtration through sterile tissue paper. The concentration of spores in the filtrate was measured using a hemocytometer. NaD1 and the fungicides were prepared as described in Example 1. The conditions used for the fungal growth assay were the same as those described in Example 1.

[4] = tested on: Leptosphaeria maculans; experiment: Growth of Leptosphaeria maculans in the presence of NaD1 and chemical fungicides in vitro; assay type: cell-based; details: L. maculans, combination with NaD1
Experimental: The defensin (NaD1) and the chemical fungicides prothioconazole (Sigma-Aldrich Cat #34232, 99.9% pure) and fluquinconazole (Nova Chem, Cat #C13805000, 98.5% pure) were assessed for their individual and combined inhibitory effects on the growth of Leptosphaeria maculans (Australian isolate IBCN18, Prof. B. Howlett) in vitro.
Leptosphaeria maculans was grown in 10% (v/v) V8 medium for about 2 weeks. Spores were collected by filtration through sterile muslin and adjusted to a final concentration of 5×10^4 spores/mL. The conditions used for the fungal growth assay were the same as those described in Example 1 except 10% (v/v) V8 medium was used.

[5] = tested on: Verticillium dahliae; experiment: Growth of Verticillium dahliae in the presence of NaD1 and chemical fungicides in vitro; assay type: cell-based; details: V. dahliae growth curves, combination with NaD1
Experimental: The inhibitory effects of defensin (NaD1) and chemical fungicides were assayed on growth of Verticillium dahliae (Australian isolate VCG-4B, Dr. Stephen Allen, Cotton Seed Distributors, Narrabri, NSW, Australia) in vitro.
Spores of V. dahliae were isolated from sporulating cultures growing in Czapek-Dox broth (Difco) for 1-2 weeks at room temperature. Spores were separated from hyphal matter by filtration through sterile tissue paper and the concentration of spores in the filtrate was measured using a hemocytometer. NaD1 and the fungicides were prepared as described in Example 1. The conditions used for the fungal growth assay were the same as those described in Example 1 except that Czapek-Dox broth was used in place of PDB.

[6] = tested on: Fusarium graminearum; experiment: microbe, parasite or virus in culture; assay type: cell-based
[7] = tested on: Saccharomyces cerevisiae; experiment: Effect of NaD1 on growth of yeast strains
Experimental: (§1) The effect of NaD1 on the growth of the yeast strains Candida albicans, Pichia pastoris and Saccharomyces cerevisiae (from Department of Microbiology, La Trobe University) was assayed in microtitre plates. Cells were grown in YPD for 48 h, then counted using a haemocytometer and diluted to a concentration of 5×10^4 cells/mL in fresh YPD. Cell suspension (100 μL) containing 0-10 μM NaD1 was added to the wells of a 96-well microtitre plate and incubated for 48 h at 30° C. Growth was determined by measuring the optical density at 595 nm using a microtitre plate reader. Each test was performed in quadruplicate.

[8] = tested on: Fov hyphae; experiment: Uptake of fluorescently labeled NaD1 (NaD1-bimane) by fluorescence microscopy; details: live hyphae
Experimental: Hyphae grown for 18 h as described were treated with NaD1-bimane (2 μM) for between 10 min and 6 h. Hyphae were then visualized by fluorescence microscopy using an MWU filter (excitation wavelength of 330-385 nm).

[9] = tested on: Fov hyphae; experiment: Membrane permeabilization of Fov hyphae, SYTOX green uptake; assay type: cell-based, Fusarium oxysporum f. sp. vasinfectum; details: 0.1, 2 or 10 μM NaD1 or 10 μM NaD1R&A
[10] = tested on: Candida albicans; experiment: Effect of NaD1 on growth of yeast strains
Experimental: as §1

## CC1(C)CCCC(C)(C)N1[O] [TEMPO]
[1]
  effect of ROS scavenger on NaD1-induced DHR123 oxidation: did not alter the level of fluorescence

## O=C1O[C@H]([C@@H](O)CO)C(O)=C1O [ascorbic acid, Ascorbic acid]
[2]
  effect of ROS scavenger on growth inhibition of Fov by NaD1: nor did the presence of 10 mM ascorbic acid affect growth inhibition of Fov by NaD1
[1]
  effect of ROS scavenger on NaD1-induced DHR123 oxidation: did not alter the level of fluorescence

## CO/C=C(/C(=O)OC)c1ccccc1Oc1cc(Oc2ccccc2C#N)ncn1 [azoxystrobin]
[3]
  synergism with NaD1: synergistic effect

## CO/N=C(/C1=NOCCO1)c1ccccc1Oc1ncnc(Oc2ccccc2Cl)c1F [fluoxastrobin]
[3]
  synergism with NaD1: synergy

## O=c1c2cc(F)ccc2nc(-n2cncn2)n1-c1ccc(Cl)cc1Cl [fluquinconazole]
[4]
  enhancement of fungicide activity by defensin: synergistic

## C[Si](Cn1cncn1)(c1ccc(F)cc1)c1ccc(F)cc1 [flusilazole]
[5]
  synergism with NaD1: Synergism

## CO/C=C(/C(=O)OC)c1ccccc1COc1cccc(C(F)(F)F)n1 [picoxystrobin]
[3]
  synergism with NaD1: synergy

## CCCC1COC(Cn2cncn2)(c2ccc(Cl)cc2Cl)O1 (stereo not drawn) [propiconazole]
[6]; 0.24 μM NaD1 combined with 1 mg/L propiconazole
  toxicity with Fusarium graminearum: significantly enhanced
[6]; F. graminearum growth curves, combination with NaD1
  synergism with NaD1: Synergism
[6]; Fusarium graminearum, read-out: inhibition of fungal growth
  inhibition at 0.06 µg/mL: ~13%
[6]; combination of 0.5 μM defensin and 0.06 mg/L propiconazole
  inhibition of fungal growth: about 78%
[3]
  synergism with NaD1: Synergism
[5]
  synergism with NaD1: Synergism

## OC(Cc1ccccc1Cl)(Cn1nc[nH]c1=S)C1(Cl)CC1 (stereo not drawn) [prothioconazole]
[4]
  enhancement of fungicide activity by defensin: synergistic

## CC(C)(C)C(O)(CCc1ccc(Cl)cc1)Cn1cncn1 (stereo not drawn) [tebuconazole]
[5]
  synergism with NaD1: Synergism

## DmAMP1: plant defensin from dahlia (ELCEKASKTWSGNCGNTGHCDNQCKSWEGAAHGACHVRNGKHMCFCYFNC; UniProt P0C8Y4 1-50, looked up) [reference compound]
[7]
  effect on growth: inhibited the growth

## NaD1 labeled with FITC: NaD1 labeled with FITC via reactive amine groups (RECKTESNTFPGICITKPPCRKACISEKFTDGHCSKILRRCLCTKPC; cysteine pairing not given here; also: FITC label via reactive amine groups; UniProt Q8GTM0 26-72, looked up)
[2]
  antifungal activity of labeled NaD1: not biologically active

## NaD1-bimane: NaD1 labeled with the fluorophore bimane amine on carboxyl residues (RECKTESNTFPGICITKPPCRKACISEKFTDGHCSKILRRCLCTKPC; cysteine pairing not given here; also: bimane amine fluorophore on carboxyl residues; UniProt Q8GTM0 26-72, looked up)
[2]
  antifungal activity of labeled NaD1: retained full antifungal activity
[8]
  time at which internalization was observed: 20 to 30 min

## NaD1R&A: NaD1 with cysteine residues reduced and alkylated (RECKTESNTFPGICITKPPCRKACISEKFTDGHCSKILRRCLCTKPC; also: cysteines reduced and alkylated; UniProt Q8GTM0 26-72, looked up)
[2]
  activity in growth inhibitory assays: completely inactive
[9]
  permeabilization of hyphae (SYTOX green): Permeabilization was not observed
[1]; NaD1 0.1, 2 and 10 μM or 10 μM NaD1R&A
  ROS production (DHR123 oxidation fluorescence): No fluorescence was observed

## RsAFP2: plant defensin from radish (QKLCQRPSGTWSGVCGNNNACKNQCIRLEKARHGSCNYVFPAHKCICYFPC; UniProt P30230 30-80, looked up) [reference compound]
[10]
  effect on growth: inhibited the growth
